Reference: patent US6369251B1, “Method for purification of polyprenyl compounds” (Nikken Chemicals Co., Ltd., priority 1999, dated 2002)

Key:
[1] = Determination of peroxide value by the British Pharmacopeia method (iodometric titration); format: physicochemical; conditions: sample after recrystallization; about 1 g sample, titration with sodium thiosulfate
Experimental: The results of purities and determined peroxide values of (2E, 4E, 6E, 10E)-3,7,11,15-tetramethyl-2,4,6,10,14-hexadecapentaenoic acid obtained in Example 1 and Reference Example 3 are shown in Table 1.
The determination of the peroxide values was performed by the method described in the British Pharmacopeia. About 1 g of each sample was accurately weighed in a stoppered Erlenmeyer flask, and the sample was added with chloroform (15 mL) and dissolved. The solution was added with acetic acid (20 mL), and the mixture was shaken gently. Air in the flask was sufficiently substituted with argon atmosphere, and the mixture was added with 1 mL of saturated potassium iodide solution prepared just before use, and the mixture was left stand for 10 minutes in a dark place. Then, the mixture was added with 30 mL of water and shaken vigorously. The liberated iodine was titrated with […] sodium thiosulfate solution (indicator: 2 mL of the starch test solution). The titration was terminated when the purplish red color of the solution disappeared. Correction was made by performing a blank test in the same manner.
The peroxide value was calculated by using the following equation.
Peroxide value (meq/kg)=10f(a−b)/Sampled weight (g) a: Titration volume (mL) of 0.01 mol/L Na2S2O3 solution b: Titration volume (mL) of 0.01 mol/L Na2S2O3 solution in the blank test f: Factor of 0.01 mol/L Na2S2O3 solution

hepatic carcinoma = conditions: known from literature; cited from earlier work

Row | Peroxide value [1] | Structure (SMILES) | effect on recurrence of hepatic carcinoma (hepatic carcinoma)
1 | 3.0 meq/kg | CC(C)=CCC/C(C)=C/CC/C(C)=C/C=C/C(C)=C/C(=O)O [Reference Example 3, (2E, 4E, 6E, 10E)-3,7,11,15-tetramethyl-2,4,6,10,14-hexadecapentaenoic acid] | 
2 |  | CC(C)=CCC/C(C)=C/CC/C(C)=C/C=C/C(C)=C/C(=O)O [(2E, 4E, 6E, 10E)-3,7,11,15-Tetramethyl-2,4,6,10,14-hexadecapentaenoic acid] | suppressing effect on recurrence of hepatic carcinoma
3 | 0 meq/kg | CC(C)=CCC/C(C)=C/CC/C(C)=C/C=C/C(C)=C/C(=O)O [Example 1, (2E, 4E, 6E, 10E)-3,7,11,15-tetramethyl-2,4,6,10,14-hexadecapentaenoic acid] | 
